Consider one compound from patent publication US20260199282A1, “METHODS AND COMPOSITIONS FOR IMPROVING DRIVING PERFORMANCE” (priority 2022, published 2026).

The structures appear in SMILES notation.

The assay concerns participants with OSA. Kind of assay: Actual task effectiveness from PVT inverse reaction time, OSA. It counts as in vivo, human. The note with it: OSA n=31. As for the experimental part: Actual task effectiveness scores were calculated based on each participant's inverse reaction time (IRT [1/RT]) as described below. Sleep intervals derived from participants' actigraphy data—or from sleep diaries, if available, where actigraphy data were missing—were used to calculate modeled healthy control task effectiveness scores using the SAFTE. Participants evidenced good sleep hygiene, with minimal missing data. Task effectiveness was not modeled for participants missing data from the night before PVT testing. A SAFTE model effectiveness score of 100 indicates typical best performance during the day, based on a normal healthy population. SAFTE-FAST effectiveness predictions have been validated against IRT on the PVT [22].
Actual effectiveness scores were calculated as a percentage of a theoretical “best performance” from participants' average IRT per PVT trial (for all PVT test sessions, actual effectiveness=IRT/3.96×100). Average speed (IRT) on a PVT under optimal conditions—healthy sleepers taking the test at 11:00 in the morning, following an 8-hour sleep opportunity—is approximately 3.96 [40], and is assumed to represent an actual effectiveness score of 100 (a healthy participant's typical best performance). Repeated-measures analysis of variance (ANOVA) was used to estimate the effect of treatment on actual effectiveness over time.

As to `NC(=O)OC[C@H](N)Cc1ccccc1` [Solriamfetol, (R)-2-amino-3-phenylpropyl carbamate], the “Actual task effectiveness, LS mean (SE)” value by setting is: (2 hours post-dose) 91.88 (1.12); (6 hours post-dose) 93.72 (1.12); (pre-dose) 89.19 (1.12). The “Actual task effectiveness, LS mean difference” value (2 hours post-dose) is listed as −2.35; the “Actual task effectiveness, LS mean difference” value (6 hours post-dose) was −1.35; the “Actual task effectiveness, LS mean difference” value (pre-dose) is on record as −4.45.
